Laboratory results from US20090018134A1, “Compounds - 945” (AstraZeneca AB, priority 2007, published 2009).

The molecules below were run against T1, mTOR (Homo sapiens, UniProt P42345) (assay: In Vitro mTOR Kinase Assay (Echo), Test (a)(ii)). Details: table of enzyme assay Test (a)(ii); read-out: Test (a)(ii) IC50.
T1 construct: FLAG; made in house
Format: biochemical
In short: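 Inhibition expressed as IC50 from an AlphaScreen read-out: phospho-T389 p70 S6K antibody plus streptavidin donor/protein A acceptor beads, left overnight in the dark. The kinase reaction ran 2 h at room temperature, then was stopped with EDTA. Enzyme: FLAG-purified mTOR 1362-2549 fragment from stable HEK293 cells.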

T1 sequence (P42345 1362-2549): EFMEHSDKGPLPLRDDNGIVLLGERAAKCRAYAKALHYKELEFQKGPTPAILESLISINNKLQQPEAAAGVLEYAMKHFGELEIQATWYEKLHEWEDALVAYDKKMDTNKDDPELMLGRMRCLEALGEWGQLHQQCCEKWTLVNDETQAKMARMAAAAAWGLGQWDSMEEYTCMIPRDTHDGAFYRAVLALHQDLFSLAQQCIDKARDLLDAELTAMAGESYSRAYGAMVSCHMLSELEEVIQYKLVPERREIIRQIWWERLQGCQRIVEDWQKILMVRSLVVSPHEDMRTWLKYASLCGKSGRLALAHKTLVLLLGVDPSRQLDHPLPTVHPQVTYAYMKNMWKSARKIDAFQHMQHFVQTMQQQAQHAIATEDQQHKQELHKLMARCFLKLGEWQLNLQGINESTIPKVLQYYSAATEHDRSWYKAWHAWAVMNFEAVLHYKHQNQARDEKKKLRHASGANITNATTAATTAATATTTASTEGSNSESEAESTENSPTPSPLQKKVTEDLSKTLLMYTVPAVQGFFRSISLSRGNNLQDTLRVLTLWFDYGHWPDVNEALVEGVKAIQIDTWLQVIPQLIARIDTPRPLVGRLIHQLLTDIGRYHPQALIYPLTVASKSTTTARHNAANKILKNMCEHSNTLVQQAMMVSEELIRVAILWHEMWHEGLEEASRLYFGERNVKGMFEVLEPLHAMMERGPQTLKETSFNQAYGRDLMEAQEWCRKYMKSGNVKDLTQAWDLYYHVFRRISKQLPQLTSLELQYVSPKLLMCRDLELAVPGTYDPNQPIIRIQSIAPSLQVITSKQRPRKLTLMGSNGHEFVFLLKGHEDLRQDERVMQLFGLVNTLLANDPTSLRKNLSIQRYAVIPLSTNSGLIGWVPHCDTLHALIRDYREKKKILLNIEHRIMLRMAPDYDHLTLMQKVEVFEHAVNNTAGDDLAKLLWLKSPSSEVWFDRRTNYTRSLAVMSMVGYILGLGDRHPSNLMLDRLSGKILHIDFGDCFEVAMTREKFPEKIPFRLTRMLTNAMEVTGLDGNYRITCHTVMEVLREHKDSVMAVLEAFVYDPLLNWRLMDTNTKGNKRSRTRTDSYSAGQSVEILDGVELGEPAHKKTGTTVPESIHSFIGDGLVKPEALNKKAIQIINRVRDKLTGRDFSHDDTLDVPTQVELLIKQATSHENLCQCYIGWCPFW

| SMILES | IC50 |
| --- | --- |
| C[C@@H](CO)NC(=O)Nc1ccc(-c2nc(N3CCOC[C@@H]3C)cc(C3(S(=O)(=O)C4CC4)CCC3)n2)cc1 [Example 64x, 1-[4-[4-(1-cyclopropylsulfonylcyclobutyl)-6-[(3S)-3-methylmorpholin-4-yl]pyrimidin-2-yl]phenyl]-3-[(2S)-1-hydroxypropan-2-yl]urea] | 7.61 nM |
| C[C@H](CO)NC(=O)Nc1ccc(-c2nc(N3CCOC[C@@H]3C)cc(C3(S(=O)(=O)C4CC4)CCC3)n2)cc1 [Example 64y, 1-[4-[4-(1-cyclopropylsulfonylcyclobutyl)-6-[(3S)-3-methylmorpholin-4-yl]pyrimidin-2-yl]phenyl]-3-[(2R)-1-hydroxypropan-2-yl]urea] | 12.5 nM |
| C[C@H]1COCCN1c1cc(C2(S(=O)(=O)C3CC3)CCC2)nc(-c2ccc(NC(=O)NCCCO)cc2)n1 [Example 64z, 1-[4-[4-(1-cyclopropylsulfonylcyclobutyl)-6-[(3S)-3-methylmorpholin-4-yl]pyrimidin-2-yl]phenyl]-3-(3-hydroxypropyl)urea] | 8.66 nM |
| C[C@H]1COCCN1c1cc(C2(S(=O)(=O)c3ccc(F)cc3)CCC2)nc(-c2ccc(NC(=O)NCc3ncc[nH]3)cc2)n1 [Example 65, 1-[4-[4-[1-(4-Fluorophenyl)sulfonylcyclobutyl]-6-[(3S)-3-methylmorpholin-4-yl]pyrimidin-2-yl]phenyl]-3-(1H-imidazol-2-ylmethyl)urea] | 30 nM |
| C[C@H]1COCCN1c1cc(C2(S(=O)(=O)c3ccc(F)cc3)CCC2)nc(-c2ccc(NC(=O)NCCCO)cc2)n1 [Example 65a, 1-[4-[4-[1-(4-fluorophenyl)sulfonylcyclobutyl]-6-[(3S)-3-methylmorpholin-4-yl]pyrimidin-2-yl]phenyl]-3-(3-hydroxypropyl)urea] | 6.88 nM |
| C[C@H]1COCCN1c1cc(C2(S(=O)(=O)c3ccc(F)cc3)CCC2)nc(-c2ccc(NC(=O)NCCO)cc2)n1 [Example 65b, 1-[4-[4-[1-(4-fluorophenyl)sulfonylcyclobutyl]-6-[(3S)-3-methylmorpholin-4-yl]pyrimidin-2-yl]phenyl]-3-(2-hydroxyethyl)urea] | 3.42 nM |
| C[C@H]1COCCN1c1cc(C2(S(=O)(=O)c3ccc(F)cc3)CCC2)nc(-c2ccc(NC(=O)NC(C)(C)CO)cc2)n1 [Example 65c, 1-[4-[4-[1-(4-fluorophenyl)sulfonylcyclobutyl]-6-[(3S)-3-methylmorpholin-4-yl]pyrimidin-2-yl]phenyl]-3-(1-hydroxy-2-methylpropan-2-yl)urea] | 15.1 nM |
| C[C@@H](CO)NC(=O)Nc1ccc(-c2nc(N3CCOC[C@@H]3C)cc(C3(S(=O)(=O)c4ccc(F)cc4)CCC3)n2)cc1 [Example 65d, 1-[4-[4-[1-(4-fluorophenyl)sulfonylcyclobutyl]-6-[(3S)-3-methylmorpholin-4-yl]pyrimidin-2-yl]phenyl]-3-[(2S)-1-hydroxypropan-2-yl]urea] | 4.48 nM |
| C[C@H](CO)NC(=O)Nc1ccc(-c2nc(N3CCOC[C@@H]3C)cc(C3(S(=O)(=O)c4ccc(F)cc4)CCC3)n2)cc1 [Example 65e, 1-[4-[4-[1-(4-fluorophenyl)sulfonylcyclobutyl]-6-[(3S)-3-methylmorpholin-4-yl]pyrimidin-2-yl]phenyl]-3-[(2R)-1-hydroxypropan-2-yl]urea] | 11.4 nM |
| C[C@H]1COCCN1c1cc(C2(S(=O)(=O)c3nccs3)CC2)nc(-c2ccc(NC(=O)NCCO)cc2)n1 [Example 66, 3-(2-Hydroxyethyl)-1-[4-[4-[(3S)-3-methylmorpholin-4-yl]-6-[1-(1,3-thiazol-2-ylsulfonyl)cyclopropyl]pyrimidin-2-yl]phenyl]urea] | 3.03 nM |
| C[C@H]1COCCN1c1cc(C2(S(=O)(=O)c3nccs3)CC2)nc(-c2ccc(NC(=O)NCCCO)cc2)n1 [Example 66a, 3-(3-hydroxypropyl)-1-[4-[4-[(3S)-3-methylmorpholin-4-yl]-6-[1-(1,3-thiazol-2-ylsulfonyl)cyclopropyl]pyrimidin-2-yl]phenyl]urea] | 4.15 nM |
| C[C@H]1COCCN1c1cc(C2(S(=O)(=O)c3nccs3)CC2)nc(-c2ccc(NC(=O)NCc3ncc[nH]3)cc2)n1 [Example 66b, 3-(1H-imidazol-2-ylmethyl)-1-[4-[4-[(3S)-3-methylmorpholin-4-yl]-6-[1-(1,3-thiazol-2-ylsulfonyl)cyclopropyl]pyrimidin-2-yl]phenyl]urea] | 24.6 nM |
| C[C@H]1COCCN1c1cc(C2(S(=O)(=O)c3nccs3)CC2)nc(-c2ccc(NC(=S)NCCO)cc2)n1 [Example 67, 3-(2-Hydroxyethyl)-1-[4-[4-[(3S)-3-methylmorpholin-4-yl]-6-[1-(1,3-thiazol-2-ylsulfonyl)cyclopropyl]pyrimidin-2-yl]phenyl]thiourea] | 1 nM |
| Cc1ccc(S(=O)(=O)C2(c3cc(N4CCOC[C@@H]4C)nc(-c4ccc(NC(=O)NC5CC5)cc4)n3)CCC2)cc1 [Example 68, 3-Cyclopropyl-1-[4-[4-[(3S)-3-methylmorpholin-4-yl]-6-[1-(4-methylphenyl)sulfonylcyclobutyl]pyrimidin-2-yl]phenyl]urea] | 1.41 nM |
| Cc1ccc(S(=O)(=O)C2(c3cc(N4CCOC[C@@H]4C)nc(-c4ccc(NC(=O)Nc5cnn(C)c5)cc4)n3)CCC2)cc1 [Example 68a] | 1.74 nM |
| CCNC(=O)Nc1ccc(-c2nc(N3CCOC[C@H]3C)cc(C3(S(=O)(=O)c4ccccc4)CC3)n2)cc1 [Example 69, 1-[4-[4-[1-(Benzenesulfonyl)cyclopropyl]-6-[(3R)-3-methylmorpholin-4-yl]pyrimidin-2-yl]phenyl]-3-ethylurea] | 7.88 nM |
| CCNC(=O)Nc1ccc(-c2nc(N3CCOC[C@@H]3CC)cc(C3(S(=O)(=O)c4ccccc4)CC3)n2)cc1 [Example 70, 1-[4-[4-[1-(Benzenesulfonyl)cyclopropyl]-6-[(3S)-3-ethylmorpholin-4-yl]pyrimidin-2-yl]phenyl]-3-ethylurea] | 2 nM |
| CCNC(=O)Nc1ccc(-c2nc(N3CCOCC3CO)cc(C3(S(=O)(=O)c4ccccc4)CC3)n2)cc1 (centres unmarked) [Example 71, 1-[4-[4-[1-(Benzenesulfonyl)cyclopropyl]-6-[3-(hydroxymethyl)morpholin-4-yl]pyrimidin-2-yl]phenyl]-3-ethylurea] | 18.2 nM |
| CCNC(=O)Nc1ccc(-c2nc(N3[C@@H](C)COC[C@@H]3C)cc(C3(S(=O)(=O)c4ccccc4)CC3)n2)cc1 [Example 72, 1-[4-[4-[1-(Benzenesulfonyl)cyclopropyl]-6-[(3S,5S)-3,5-dimethylmorpholin-4-yl]pyrimidin-2-yl]phenyl]-3-ethylurea] | 4.32 nM |
| CCNC(=O)Nc1ccc(-c2nc(N3[C@H](C)COC[C@@H]3C)cc(C3(S(=O)(=O)c4ccccc4)CC3)n2)cc1 [Example 73, 1-[4-[4-[1-(Benzenesulfonyl)cyclopropyl]-6-[(3R,5S)-3,5-dimethylmorpholin-4-yl]pyrimidin-2-yl]phenyl]-3-ethylurea] | 7.44 nM |
| CC[C@H]1COCCN1c1cc(C2(S(=O)(=O)c3ccccc3)CC2)nc(-c2ccc(NC(=O)NC)cc2)n1 [Example 74, 1-[4-[4-[1-(Benzenesulfonyl)cyclopropyl]-6-[(3S)-3-ethylmorpholin-4-yl]pyrimidin-2-yl]phenyl]-3-methylurea] | 2.37 nM |
| CC[C@H]1COCCN1c1cc(C2(S(=O)(=O)c3ccccc3)CC2)nc(-c2ccc(NC(=O)NC3CC3)cc2)n1 [Example 74a, 1-[4-[4-[1-(benzenesulfonyl)cyclopropyl]-6-[(3S)-3-ethylmorpholin-4-yl]pyrimidin-2-yl]phenyl]-3-cyclopropylurea] | 3.98 nM |
| CC[C@H]1COCCN1c1cc(C2(S(=O)(=O)c3ccccc3)CC2)nc(-c2ccc(NC(=O)NCCO)cc2)n1 [Example 74b, 1-[4-[4-[1-(benzenesulfonyl)cyclopropyl]-6-[(3S)-3-ethylmorpholin-4-yl]pyrimidin-2-yl]phenyl]-3-(2-hydroxyethyl)urea] | 2.44 nM |
| CC[C@H]1COCCN1c1cc(C2(S(=O)(=O)c3ccccc3)CC2)nc(-c2ccc(NC(=O)NCCF)cc2)n1 [Example 74c, 1-[4-[4-[1-(benzenesulfonyl)cyclopropyl]-6-[(3S)-3-ethylmorpholin-4-yl]pyrimidin-2-yl]phenyl]-3-(2-fluoroethyl)urea] | 3.14 nM |
| CC[C@H]1COCCN1c1cc(C2(S(=O)(=O)c3ccccc3)CC2)nc(-c2ccc(NC(=O)NCC(F)F)cc2)n1 [Example 74d, 1-[4-[4-[1-(benzenesulfonyl)cyclopropyl]-6-[(3S)-3-ethylmorpholin-4-yl]pyrimidin-2-yl]phenyl]-3-(2,2-difluoroethyl)urea] | 2.79 nM |
| CC[C@H]1COCCN1c1cc(C2(S(=O)(=O)c3ccccc3)CC2)nc(-c2ccc(NC(=O)Nc3cnn(C)c3)cc2)n1 [Example 74e, 1-[4-[4-[1-(benzenesulfonyl)cyclopropyl]-6-[(3S)-3-ethylmorpholin-4-yl]pyrimidin-2-yl]phenyl]-3-(1-methylpyrazol-4-yl)urea] | 5.06 nM |
| CC[C@H]1COCCN1c1cc(C2(S(=O)(=O)c3ccccc3)CC2)nc(-c2ccc(NC(=O)N[C@@H](C)CO)cc2)n1 [Example 74f, 1-[4-[4-[1-(benzenesulfonyl)cyclopropyl]-6-[(3S)-3-ethylmorpholin-4-yl]pyrimidin-2-yl]phenyl]-3-[(2S)-1-hydroxypropan-2-yl]urea] | 3.99 nM |
| CC[C@H]1COCCN1c1cc(C2(S(=O)(=O)c3ccccc3)CC2)nc(-c2ccc(NC(=O)N[C@H](C)CO)cc2)n1 [Example 74g, 1-[4-[4-[1-(benzenesulfonyl)cyclopropyl]-6-[(3S)-3-ethylmorpholin-4-yl]pyrimidin-2-yl]phenyl]-3-[(2R)-1-hydroxypropan-2-yl]urea] | 4.33 nM |
| CC[C@H]1COCCN1c1cc(C2(S(=O)(=O)c3ccccc3)CC2)nc(-c2ccc(NC(=O)NCCCO)cc2)n1 [Example 74h, 1-[4-[4-[1-(benzenesulfonyl)cyclopropyl]-6-[(3S)-3-ethylmorpholin-4-yl]pyrimidin-2-yl]phenyl]-3-(3-hydroxypropyl)urea] | 3.21 nM |
